Here are results for one compound from patent publication US10203334B2, “Methods and compositions related to nucleic acid binding assays” (Nubad, LLC, priority 2012, dated 2019).

For data set [1], the system named is E. coli ribosomal A-site oligonucleotide (SEQ ID No. 1). The data set can be described thus: 96-well F-neo displacement HTS on ribosomal A-site. The class given is binding. Particulars: 96-well plate reader; 0.30 mM F-neo and 0.3 mM A-site oligonucleotide. From the text: [drawing 24] where FHNeo represents the protonated form of F-neo. F(-)Neo, upon binding to nucleic acids such as DNA or RNA, is destabilized by the nucleic acid backbone negative potential, shifting the equilibrium towards FH, making F-neo a weaker acid, raising the pKa, which is what we observe upon binding to the A-site. For the A-site targeted assay, we calculated the Z' factor (Z=1-3(2.7+2.8)/(414-267)=0.89. […] Provided is a detailed example for the development of a HTS by the displacement of a fluorescene-neomycin (F-neo (42a)) from rRNA A-site oligonucleotide (SEQ ID No. 1) using a 96 well plate format and a fluorescent plate reader. […] This HTS involves the displacement of a fluorescene-neomycin (F-neo (42a)) by potential RNA binding molecules in a 96 well plate format using a fluorescent plate reader. […] F-neo based RNA binding assays have been performed using a fluorescence spectrophotometer with a 96-well plate reader and results recorded in FIG. 4. […] Fo is defined as the baseline fluorescence intensity of the RNA/F-neo complex and F is the intensity with added drug. The difference between the fluorescence intensity baseline of F-neo/A-site complex and complex with added drug (F-Fo) indicates the extent of the competition of drug for the binding site, this allows the relative binding affinities of aminoglycosides to be established. […]

The test system of data set [2] is d(CCCCGGGG)2. The class given is physicochemical. From the text: (§1) The local electrostatic potential (Ψ) in the major groove is given by the following Equation 3. Ψ=−[R·T·ln 10/(NA·e)]ΔpKa Eq. (3) Where ΔpKa is the difference between the free Fluorescein-neomycin and the Fluorescein-neomycin in the presence of the electrostatic environment, R is the universal gas constant, T is the absolute temperature in kelvin, NA is the Avogadro constant, and e is the elementary charge. R=8.312 J mol−1K−1, T=298.2K, NA=6.023×10^23 and e=1.602×10^−19; Ψ is expressed in mV. Thus a shift of +1 in the value of the pKa implies an electrostatic potential of […]. […] Based on this Δpka of 0.86, the electrostatic potential of the microenvironment for the fluorescein moiety in the complex is determined to be −50.9 mV.
(§2) Determination of the pKa was done using chemometric analysis of the absorption profiles at various pH values of the covalently attached fluorescein moiety (Kubista, M., et al., (1993) Anal. Chem. 65, 994-998, Kubista, M., et al., (1995) Anal. Chim. Acta. 302, 121-125.2, 3). The pH dependent absorption profile of free fluorescein-neomycin was first analyzed to determine its pKa. […] The electrostatic potential (P) calculated from the shift in pKa, and the ITC derived binding constant (K). Electrostatic potential experiments performed in 100 mM NaCl, 10 mM SC, 0.5 mM EDTA at 25° C. ITC experiments performed in 50 mM KCl, 10 mM SC, 0.5 mM EDTA (pH 6.0) at 25° C. […] Fluorescein-neomycin concentration was 10 μM. Table 1 represents the pKa values determined from the inflection point of the pH dependent absorbance scans of free fluorescein-neomycin, fluorescein-neomycin with one molar equivalent d(CCCCGGGG)2 and d(GGGGCCCC)2. The electrostatic potential (Y) calculated from the shift in pKa, and the ITC derived binding constant (K).

Data set [3] concerns d(GGGGCCCC)2. The class given is physicochemical.
Text: as §1, §2

Data set [4] relates to d(CCCCGGGG)2. The data set can be described thus: ITC derived binding constant. To be noted: 50 mM KCl, 10 mM SC, 0.5 mM EDTA (pH 6.0) at 25° C.
Text: as §2

Data set [5] has as its system d(GGGGCCCC)2. The data set can be described thus: ITC derived binding constant. Particulars: 50 mM KCl, 10 mM SC, 0.5 mM EDTA (pH 6.0) at 25° C.
Text: as §2

Setting [6] is: electrostatic potential calculated from the shift in pKa.
Where [7] appears, read: versus free fluorescein-neomycin.

`NCC1O[C@H](OC2C(O)C(OC3C(O)[C@H](N)CC(N)[C@H]3O[C@H]3OC(CN)[C@@H](O)C(O)C3N)O[C@@H]2CSCCNC(=O)CCSCC(=O)Nc2ccc(-c3c4ccc(=O)cc-4oc4cc(O)ccc34)c(C(=O)O)c2)C(N)C(O)[C@@H]1O` (stereo partly drawn) [F-neo (42a), Neomycin-Fluorescein Conjugate]: the “reduction in fluorescence intensity on addition of A-site” value in data set [1] stood at 2 fold. Moreover, the “Ψ (mV)” value is −15.13 mV in the data set with d(CCCCGGGG)2 [2] (setting [6]) and −25.61 mV with d(GGGGCCCC)2 [3] (setting [6]). The pKa was 6.83 in the data set on d(CCCCGGGG)2 [2] (one molar equivalent d(CCCCGGGG)2, 100 mM NaCl, 10 mM SC, 0.5 mM EDTA at 25° C.) and 7.01 in the data set with d(GGGGCCCC)2 [3] (one molar equivalent d(GGGGCCCC)2, 100 mM NaCl, 10 mM SC, 0.5 mM EDTA at 25° C.). The ΔpKa in the data set with d(CCCCGGGG)2 [2] (setting [7]) was determined as 0.26; in the data set on d(GGGGCCCC)2 [3] (setting [7]), 0.44. Further, the “K (M^−1) × 10^5” value is given as 7.97 ± 10.9 (M^−1) × 10^5 in the data set on d(CCCCGGGG)2 [4] and 66.3 ± 9.7 (M^−1) × 10^5 in the data set on d(GGGGCCCC)2 [5].

The term pKa denotes the negative logarithm of the acid dissociation constant.
